Experimental data from patent US10449258B2, “Antibody drug conjugate, intermediate, preparation method, pharmaceutical composition and uses thereof” (XDCEXPLORER (SHANGHAI) CO., LTD., priority 2015, dated 2019).
Where two headings read alike, the source gives them in different places.

Tests used:
[1] = tested on: Her2 low expression human MCF-7 breast tumor cells; test: Cytotoxicity assay (growth inhibition, CellTiter-Glo) on MCF-7
Procedure: (§1) Her2-positive human BT474 breast tumor cells (BT474 for short), Her2 low expression human MCF-7 breast tumor cells (MCF-7 for short), and human breast tumor cell strain MCF7-Her2 with stable-transfected Her2 outside MCF-7 (MCF-7-Her2 for short) were used (they were prepared by the methods disclosed in the literatures for preparing recombinant cells: Teemu T. Junttila, et al., Breast. Cancer Res. Treat., 2011, 128, 347 and Jeffrey J. Wallin et al., Clin. Cancer Res., 2012, 18, 3901, the contents of which are incorporated herein by reference in their entireties). The growth inhibition of tumor cells by T-CE-040 and T-CE-063 antibody drug conjugates were evaluated. BT474, MCF7-Her2 and MCF-7 were digested with 0.25% (v/v) trypsin and the cells were stripped and then suspended in 100 μL complete medium. 2,000 cells were inoculated in a 96-well plate and cultured, grew adherently overnight at 37° C., then 100 μL T-CE-040 and T-CE-063 antibody drug conjugates with different concentration gradients and the complete medium were added. After 120 hours, relative cell proliferation analysis was performed by adding 50 μL CellTiter-Glo® […] Cell Activation Reagent (CellTiter-GloB Luminescent, Promega).

[2] = tested on: human breast tumor cell strain MCF7-Her2 with stable-transfected Her2; test: Cytotoxicity assay (growth inhibition, CellTiter-Glo) on MCF7-Her2
Procedure: as §1

[3] = tested on: Her2-positive human BT474 breast tumor cells; test: Cytotoxicity assay (growth inhibition, CellTiter-Glo) on BT474
Procedure: as §1

[4] = Homo sapiens, MCF7, 120 h, read-out: Cytotoxicity assay IC50 MCF7, MCF-7 cells, 120 hours, CellTiter-Glo
[5] = Homo sapiens, 120 h, read-out: Cytotoxicity assay IC50 MCF-Her2, MCF7-Her2 cells, 120 hours, CellTiter-Glo
[6] = Homo sapiens, BT-474, 120 h, read-out: Cytotoxicity assay IC50 BT474, BT474 cells, 120 hours, CellTiter-Glo
[7] = read-out: Cytotoxicity assay IC50 MCF7, MCF-7 cells, 120 hours, CellTiter-Glo
[8] = read-out: Cytotoxicity assay IC50 MCF-Her2, MCF7-Her2 cells, 120 hours, CellTiter-Glo
[9] = read-out: Cytotoxicity assay IC50 BT474, BT474 cells, 120 hours, CellTiter-Glo

Compound	IC50 [1, 4] [µM]	IC50 [2, 5] [µM]	IC50 [3, 6] [µM]	IC50 [1, 7] [µM]	IC50 [2, 8] [µM]	IC50 [3, 9] [µM]
COc1cc2cc(c1Cl)N(C)C(=O)C[C@H](OC(=O)[C@H](C)N(C)[C@@H](CCSSC)C(F)(F)F)[C@]1(C)O[C@H]1[C@H](C)[C@@H]1C[C@@](O)(NC(=O)O1)[C@H](OC)/C=C/C=C(\C)C2 (single isomer, unassigned) [CE-029]	0.002	0.0017	0.00085	–	–	–
COc1cc2cc(c1Cl)N(C)C(=O)C[C@H](OC(=O)[C@H](C)N(C)[C@H](CCSSC)C(F)(F)F)[C@]1(C)O[C@H]1[C@H](C)[C@@H]1C[C@@](O)(NC(=O)O1)[C@H](OC)/C=C/C=C(\C)C2 (single isomer, unassigned) [CE-030]	0.0062	0.0032	0.0024	–	–	–
COc1cc2cc(c1Cl)N(C)C(=O)C[C@H](OC(=O)C(COCCCSSC)OC)[C@]1(C)O[C@H]1[C@H](C)C1C[C@@](O)(NC(=O)O1)[C@H](OC)/C=C/C=C(\C)C2 (single isomer, unassigned) [CE-054-1]	0.007	0.0034	0.01	–	–	–
COc1cc2cc(c1Cl)N(C)C(=O)C[C@H](OC(=O)C(COCCCSSC)OC)[C@]1(C)O[C@H]1[C@H](C)C1C[C@@](O)(NC(=O)O1)[C@H](OC)/C=C/C=C(\C)C2 (single isomer, unassigned) [CE-055-1]	–	–	–	0.006	0.003	0.008
COc1cc2cc(c1Cl)N(C)C(=O)C[C@H](OC(=O)[C@H](C)N(C)C(CCSSC)C(F)(F)F)[C@]1(C)O[C@H]1[C@H](C)[C@@H]1C[C@@](O)(NC(=O)O1)[C@H](OC)/C=C/C=C(\C)C2 (stereo partly drawn) [CE-011]	0.0024	0.0015	0.0012	–	–	–
COCC(C)(CCC(=O)N(C)[C@H](C)C(=O)OC1CC(=O)N(C)c2cc(cc(OC)c2Cl)C/C(C)=C/C=C/[C@@H](OC)[C@@]2(O)C[C@H](OC(=O)N2)[C@@H](C)[C@@H]2O[C@@]12C)SSC (stereo partly drawn) [CE-012]	0.0658	0.133	0.0164	–	–	–
COCC(C)(CCC(=O)N(C)[C@@H](C)C(=O)O[C@H]1CC(=O)N(C)c2cc(cc(OC)c2Cl)C/C(C)=C/C=C/[C@@H](OC)[C@@]2(O)C[C@H](OC(=O)N2)[C@@H](C)[C@@H]2O[C@@]12C)SSC (stereo partly drawn) [CE-013]	0.0043	0.0059	–	–	–	0.021
COCC(C)(CCC(=O)N(C)[C@H](C)C(=O)OC1CC(=O)N(C)c2cc(cc(OC)c2Cl)C/C(C)=C/C=C/[C@@H](OC)[C@@]2(O)C[C@H](OC(=O)N2)[C@@H](C)[C@@H]2O[C@@]12C)SSC (stereo partly drawn) [CE-014]	0.127	0.0688	0.0196	–	–	–
COCC(C)(CCC(=O)N(C)[C@@H](C)C(=O)O[C@H]1CC(=O)N(C)c2cc(cc(OC)c2Cl)C/C(C)=C/C=C/[C@@H](OC)[C@@]2(O)C[C@H](OC(=O)N2)[C@@H](C)[C@@H]2O[C@@]12C)SSC (stereo partly drawn) [CE-015]	–	–	–	0.003	0.0071	0.0063
COCC(CCC(=O)N(C)[C@H](C)C(=O)OC1CC(=O)N(C)c2cc(cc(OC)c2Cl)C/C(C)=C/C=C/[C@@H](OC)[C@@]2(O)C[C@H](OC(=O)N2)[C@@H](C)[C@@H]2O[C@@]12C)(COC)SSC (stereo partly drawn) [CE-016]	0.0677	0.0427	0.0234	–	–	–
COCC(CCC(=O)N(C)[C@@H](C)C(=O)OC1CC(=O)N(C)c2cc(cc(OC)c2Cl)C/C(C)=C/C=C/[C@@H](OC)[C@@]2(O)C[C@H](OC(=O)N2)[C@@H](C)[C@@H]2O[C@@]12C)(COC)SSC (stereo partly drawn) [CE-017]	0.0089	0.0031	0.014	–	–	–
COc1cc2cc(c1Cl)N(C)C(=O)CC(OC(=O)[C@@H](C)N(C)C(=O)CCC(C)(C#N)SSC)[C@]1(C)O[C@H]1[C@H](C)[C@@H]1C[C@@](O)(NC(=O)O1)[C@H](OC)/C=C/C=C(\C)C2 (stereo partly drawn) [CE-018]	1.57	0.399	0.0417	–	–	–
COc1cc2cc(c1Cl)N(C)C(=O)C[C@H](OC(=O)[C@H](C)N(C)C(=O)CCC(C)(C#N)SSC)[C@]1(C)O[C@H]1[C@H](C)[C@@H]1C[C@@](O)(NC(=O)O1)[C@H](OC)/C=C/C=C(\C)C2 (stereo partly drawn) [CE-019]	0.15	0.057	0.064	–	–	–
COc1cc2cc(c1Cl)N(C)C(=O)CC(OC(=O)[C@@H](C)N(C)C(=O)CCC(SSC)C(C)C)[C@]1(C)O[C@H]1[C@H](C)[C@@H]1C[C@@](O)(NC(=O)O1)[C@H](OC)/C=C/C=C(\C)C2 (stereo partly drawn) [CE-021]	0.0986	0.0929	0.0639	–	–	–
COc1cc2cc(c1Cl)N(C)C(=O)CC(OC(=O)[C@H](C)N(C)C(=O)CCC(SSC)C(C)C)[C@]1(C)O[C@H]1[C@H](C)[C@@H]1C[C@@](O)(NC(=O)O1)[C@H](OC)/C=C/C=C(\C)C2 (stereo partly drawn) [CE-022]	0.01	0.006	0.013	–	–	–
COCC(S)(CCC(=O)N(C)[C@H](C)C(=O)OC1CC(=O)N(C)c2cc(cc(OC)c2Cl)C/C(C)=C/C=C/[C@@H](OC)[C@@]2(O)C[C@H](OC(=O)N2)[C@@H](C)[C@@H]2O[C@@]12C)COC (stereo partly drawn) [CE-023]	0.46	0.352	0.308	–	–	–
COCC(S)(CCC(=O)N(C)[C@@H](C)C(=O)OC1CC(=O)N(C)c2cc(cc(OC)c2Cl)C/C(C)=C/C=C/[C@@H](OC)[C@@]2(O)C[C@H](OC(=O)N2)[C@@H](C)[C@@H]2O[C@@]12C)COC (stereo partly drawn) [CE-024]	0.0231	0.05	0.0201	–	–	–
COc1cc2cc(c1Cl)N(C)C(=O)C[C@H](OC(=O)[C@H](C)OCCSSC)[C@]1(C)O[C@H]1[C@H](C)[C@@H]1C[C@@](O)(NC(=O)O1)[C@H](OC)/C=C/C=C(\C)C2 [CE-026]	0.041	0.017	0.014	–	–	–
COc1cc2cc(c1Cl)N(C)C(=O)C[C@H](OC(=O)[C@H](C)OCCCSSC)[C@]1(C)O[C@H]1[C@H](C)[C@@H]1C[C@@](O)(NC(=O)O1)[C@H](OC)/C=C/C=C(\C)C2 [CE-027]	0.039	0.023	0.015	–	–	–
COc1cc2cc(c1Cl)N(C)C(=O)C[C@H](OC(=O)[C@H](C)OCCOCCSSC)[C@]1(C)O[C@H]1[C@H](C)[C@@H]1C[C@@](O)(NC(=O)O1)[C@H](OC)/C=C/C=C(\C)C2 [CE-028]	0.041	0.033	0.012	–	–	–
COc1cc2cc(c1Cl)N(C)C(=O)C[C@H](OC(=O)[C@H]1CC[C@H](CSSC)CC1)[C@]1(C)O[C@H]1[C@H](C)[C@@H]1C[C@@](O)(NC(=O)O1)[C@H](OC)/C=C/C=C(\C)C2 [CE-031]	0.015	0.0092	0.0075	–	–	–
COc1cc2cc(c1Cl)N(C)C(=O)C[C@H](OC(=O)[C@H](C)OCCOCCSC1CC(=O)N(C[C@H]3CC[C@H](C(=O)ON4C(=O)CCC4=O)CC3)C1=O)[C@]1(C)O[C@H]1[C@H](C)C1C[C@@](O)(NC(=O)O1)[C@H](OC)/C=C/C=C(\C)C2 (stereo partly drawn) [CE-034]	0.0141	0.0142	0.0199	–	–	–
COc1cc2cc(c1Cl)N(C)C(=O)C[C@H](OC(=O)[C@H](C)OCCCSC1CC(=O)N(C[C@H]3CC[C@H](C(=O)ON4C(=O)CCC4=O)CC3)C1=O)[C@]1(C)O[C@H]1[C@H](C)C1C[C@@](O)(NC(=O)O1)[C@H](OC)/C=C/C=C(\C)C2 (stereo partly drawn) [CE-035]	–	–	–	0.0258	0.0151	0.0267
COc1cc2cc(c1Cl)N(C)C(=O)C[C@H](OC(=O)[C@H]1CC[C@H](CSC3CC(=O)N(C[C@H]4CC[C@H](C(=O)ON5C(=O)CCC5=O)CC4)C3=O)CC1)[C@]1(C)O[C@H]1[C@H](C)C1C[C@@](O)(NC(=O)O1)[C@H](OC)/C=C/C=C(\C)C2 (stereo partly drawn) [CE-036]	0.0131	0.0069	0.00805	–	–	–
COc1cc2cc(c1Cl)N(C)C(=O)C[C@H](OC(=O)[C@H](C)OCCSC1CC(=O)N(C[C@H]3CC[C@H](C(=O)ON4C(=O)CCC4=O)CC3)C1=O)[C@]1(C)O[C@H]1[C@H](C)C1C[C@@](O)(NC(=O)O1)[C@H](OC)/C=C/C=C(\C)C2 (stereo partly drawn) [CE-037]	0.136	0.0706	0.0493	–	–	–
COc1cc2cc(c1Cl)N(C)C(=O)C[C@H](OC(=O)[C@H](C)N(C)C(CCSC1CC(=O)N(C[C@H]3CC[C@H](C(=O)ON4C(=O)CCC4=O)CC3)C1=O)C(F)(F)F)[C@]1(C)O[C@H]1[C@H](C)C1C[C@@](O)(NC(=O)O1)[C@H](OC)/C=C/C=C(\C)C2 (stereo partly drawn) [CE-038]	0.873	0.425	0.163	–	–	–
COc1cc2cc(c1Cl)N(C)C(=O)CC(OC(=O)[C@H](C)N(C)C(CCSSCCCC(=O)ON1C(=O)CCC1=O)C(F)(F)F)[C@]1(C)O[C@H]1[C@H](C)[C@@H]1C[C@@](O)(NC(=O)O1)[C@H](OC)/C=C/C=C(\C)C2 (stereo partly drawn) [CE-041]	0.185	0.126	0.0683	–	–	–
COc1cc2cc(c1Cl)N(C)C(=O)C[C@H](OC(=O)[C@H](C)OCCOCCOCC(=O)ON1C(=O)CCC1=O)[C@]1(C)O[C@H]1[C@H](C)C1C[C@@](O)(NC(=O)O1)[C@H](OC)/C=C/C=C(\C)C2 [CE-045]	0.0912	0.0692	0.133	–	–	–
